Laboratory results from article PMC2879362, “Design of Group IIA Secreted/Synovial Phospholipase A2 Inhibitors: An Oxadiazolone Derivative Suppresses Chondrocyte Prostaglandin E2 Secretion” (PLoS ONE, 2010).
Marks after values point to notes of the source that are not given here.

Key:
Type in all cases: cell-based, rabbit
[1] = system: IL-1β-stimulated PGE2 secretion in articular chondrocytes; experiment: IL-1β-stimulated PGE2 secretion in articular chondrocytes (EIA); conditions: for C8 inhibitory effect (%inhibition) on PGE2 secretion: DMEM with 2% FCS, 20 h; for decrease of PGE2 production induced by IL-1β: IL-1β 20 h
Procedure: We tested the effect of C8 on the IL-1β-stimulated secretion of PGE2 in chondrocytes. PGE2 synthesis takes place mainly in response to cell activation by IL-1β, and its generation accounts for many of the actions induced by this cytokine. In vitro, IL-1β induces the expression of COX-2 by chondrocytes, which results in increased PGE2 production. PGE2 release thus represents a powerful IL-1β- and PLA2-dependent inflammatory marker in our cell model. Chondrocytes were treated for 20 h with IL-1β alone or 1 h after the addition of C8. […] In DMEM alone, at concentrations of 0.31-, 0.62-, 0.94-, and 1.24-µM, C8 decreased the production of PGE2 induced by IL-1β by 59-, 58-, 74-, and 80-%, respectively (Fig. 4A). In DMEM supplemented with 0.1% BSA, at concentrations of 0.31-, 0.62-, 0.94-, 1.24-, 2.48-, and 4.96-µM, C8 decreased the production of PGE2 induced by IL-1β by 31-, 30-, 45-, 43-, 81-, and 92-%, respectively (Fig. 4B). In DMEM supplemented with 2% FCS, at concentrations of 0.31-, 0.62-, 0.94-, 1.24-, 2.48-, and 4.96-µM, C8 decreased the production of PGE2 induced by IL-1β by 26-, 48-, 49-, 54-, 68-, and 68-%, respectively (Fig. 4C). […] The effect of C8 was then evaluated at the extreme concentrations (0.31- and 4.96-µM) in DMEM supplemented with 2% FCS and containing decreasing (1-, 0.5-, and 0.25-ng/mL) IL-1β concentrations (Table 3). The anti-IL-1β inhibitory effect of C8 at 0.31 µM increases when IL-1β concentration decreases. […] This is probably due to the fact that at 4.96 µM, the inhibitory effect of C8 on IL-1β-induced PGE2 production is maximal. […] Thus, C8, but not C1, decreases the IL-1β-stimulated PGE2 secretion in a dose-dependent manner in the three culture medium compositions used.
(§1) Articular chondrocytes were isolated from 5-week-old Fauve de Bourgogne female rabbits (CPA, Orleans, France) and cultured at the first passage in conditions avoiding cell dedifferentiation as previously described. Cells were cultured at 37°C in 12-well plates in Ham's F-12 medium containing 10% FCS, 20 IU/mL penicillin, and 20 µg/mL streptomycin (all from Invitrogen) until nearly confluent. Then medium was replaced with DMEM (Invitrogen) containing 20 IU/mL penicillin, and 20 µg/mL streptomycin and, if necessary, 0.1% fatty acid free BSA (Sigma) or 2% FCS. At this time the C8 compound dissolved in DMSO (Sigma) was added to the medium (the amount of DMSO was kept at 1‰ (v/v) in all the wells). 1 h after the addition of C8, IL-1β (PeproTech) was added to the medium. Consequently, chondrocytes were incubated for 20 h with IL-1β and for 21 h with C8.
(§2) 20 h after the addition of IL-1β to the chondrocytes, culture media were collected, and aliquots were stored at −80°C until PGE2 and nitrite quantification. PGE2 concentration in culture media was determined by use of an enzyme immunoassay (EIA) kit (PGE2 EIA Kit-monoclonal; Cayman Chemical). Nitrite concentration was determined by a spectrophotometry method based on the Griess reaction. Briefly, 200 µL of culture medium or sodium nitrite (NaNO2, Merck) standard dilutions were mixed with 100 µL Griess reagent [0.5% (w/v) sulphanilic acid (Merck), 0.05% (w/v) N(1-naphtyl)ethylenediamine (Merck), 30% (v/v) acetic acid, 1.5 N HCl] and incubated for 10 min at 50°C. The absorbance was measured at 540 nm.

[2] = system: iNOS; experiment: Western blot of iNOS protein level in IL-1β-treated chondrocytes; conditions: C8 0.31-1.24 µM in DMEM, IL-1β 20 h
Procedure: (§3) As expected, COX-1 protein was detectable but COX-2 and iNOS proteins were undetectable in untreated control conditions (Fig. 6A). […] Consequently, the protein ratio of COX-1 to COX-2 was not modified by C8 (Fig. 6B). […] Cell lysates were centrifuged for 15 min at 14000 rpm at 4°C and supernatants were collected. Protein concentrations were determined by the Bradford method by use of the Protein Assay dye reagent (Bio-Rad). Protein extracts (20 µg) were size-separated by SDS-PAGE in a 10% (w/v) polyacrylamide gel and electroblotted to a nitrocellulose membrane. Equal protein loading and transfer was confirmed by staining the membrane with Ponceau Red [0.2% (w/v) in H2O:acetic acid 99∶1]. The membrane was sequentially incubated with antibodies against COX-1 (1∶200, Santa Cruz Biotechnology), COX-2 (1∶500, Santa Cruz Biotechnology), iNOS (1∶400, BD Biosciences) or α-tubulin (1∶100, Santa Cruz Biotechnology) and then with peroxidase-conjugated donkey anti-goat IgG (1∶20000) or donkey anti-rabbit IgG (1∶200, both Santa Cruz Biotechnology). Immunocomplexes were detected by an enhanced chemiluminescence kit (Amersham Bioscience). The membrane was stripped by incubation in 0.2 M NaOH between successive immunodetections. Semi-quantitative scanning densitometry involved use of the ImageJ program (NIH, USA).

[3] = system: COX-2; experiment: Western blot of COX-2 protein level in IL-1β-treated chondrocytes; conditions: C8 0.31-1.24 µM in DMEM, IL-1β 20 h
Procedure: as §3

[4] = system: IL-1β-stimulated NO secretion in articular chondrocytes; experiment: IL-1β-stimulated NO (nitrite) secretion in articular chondrocytes (Griess)
Procedure: We tested the effect of C8 on the IL-1β-stimulated secretion of NO in chondrocytes. NO is a mediator of immune and inflammatory responses. In vitro, IL-1β induces the expression of inducible NO synthase (iNOS) by chondrocytes, and consequently an increase in NO production. NO secretion, evaluated by nitrite concentration in the cell culture medium, represents a reliable IL-1β-dependent and PLA2-independent inflammatory marker in our cell model. Chondrocytes were treated for 20 h with IL-1β alone or 1 h after the addition of C8.
as §1, §2

With `O=c1[nH]c(Cc2ccc(OCCCCCOc3cc4ccccc4c4ccccc34)cc2)no1` [C8] the “C8 inhibitory effect (%inhibition) on PGE2 secretion” value (from here on “C8 inhibitory effect (%inhibition)”) ([1]; C8 at 0.31 µM, IL-1β 0.25 ng/mL) was 67 %inhibition, the “C8 inhibitory effect (%inhibition)” value ([1]; C8 at 0.31 µM, IL-1β 0.5 ng/mL) was 60 ^* %inhibition and the “C8 inhibitory effect (%inhibition)” value ([1]; C8 at 4.96 µM, IL-1β 0.25 ng/mL) was 65 %inhibition. The “C8 inhibitory effect (%inhibition)” value ([1]; C8 at 4.96 µM, IL-1β 0.5 ng/mL) was 67 ^* %inhibition, the “C8 inhibitory effect (%inhibition)” value ([1]; C8 at 4.96 µM, IL-1β 1 ng/mL) was 68 ^*** %inhibition and the “decrease of PGE2 production induced by IL-1β” value (“decrease … by IL-1β” for short) ([1]; DMEM + 0.1% BSA, C8 0.31 µM) was 31%. For the same compound, the “decrease … by IL-1β” value ([1]; DMEM + 0.1% BSA, C8 0.62 µM) was 30%, the “decrease … by IL-1β” value ([1]; DMEM + 0.1% BSA, C8 0.94 µM) was 45% and the “decrease … by IL-1β” value ([1]; DMEM + 0.1% BSA, C8 1.24 µM) was 43%. For the same compound, the “decrease … by IL-1β” value ([1]; DMEM + 0.1% BSA, C8 2.48 µM) was 81%, the “down-regulation of IL-1β-stimulated secretion of PGE2” value ([1]; DMEM + 0.1% BSA, C8 4.96 µM) was “to the level of the control untreated condition” and the “decrease … by IL-1β” value ([1]; DMEM + 0.1% BSA, C8 4.96 µM) was 92%. The “decrease … by IL-1β” value ([1]; DMEM + 2% FCS, C8 0.31 µM) was 26%, the “decrease … by IL-1β” value ([1]; DMEM + 2% FCS, C8 0.62 µM) was 48% and the “decrease … by IL-1β” value ([1]; DMEM + 2% FCS, C8 0.94 µM) was 49%. For the same compound, the “decrease … by IL-1β” value ([1]; DMEM + 2% FCS, C8 1.24 µM) was 54%, the “decrease … by IL-1β” value ([1]; DMEM + 2% FCS, C8 2.48 µM) was 68% and the “decrease … by IL-1β” value ([1]; DMEM + 2% FCS, C8 4.96 µM) was 68%. The “down-regulation of IL-1β-stimulated secretion of PGE2” value ([1]; DMEM + 2% FCS, C8 2.48 and 4.96 µM) was “to the level of the control untreated condition”, the “decrease … by IL-1β” value ([1]; DMEM alone, C8 0.31 µM) was 59% and the “decrease … by IL-1β” value ([1]; DMEM alone, C8 0.62 µM) was 58%. For the same compound, the “decrease … by IL-1β” value ([1]; DMEM alone, C8 0.94 µM) was 74%, the “decrease … by IL-1β” value ([1]; DMEM alone, C8 1.24 µM) was 80% and the “effect on iNOS protein level” value [2] was “did not alter”. The “effect on COX-2 protein level” value [3] was “did not alter”, the “inhibition of IL-1β-stimulated nitrite secretion” value ([4]; DMEM + 0.1% BSA, IL-1β 20 h) was “did not significantly inhibit” and the “decrease of IL-1β-induced nitrite production” value ([4]; DMEM + 2% FCS, C8 1.24 µM) was 17%. For the same compound, the “decrease of IL-1β-induced nitrite production” value ([4]; DMEM + 2% FCS, C8 2.48 µM) was 19%, the “decrease of IL-1β-induced nitrite production” value ([4]; DMEM + 2% FCS, C8 4.96 µM) was 21% and the “inhibition of IL-1β-stimulated nitrite secretion” value ([4]; DMEM + 2% FCS, C8 at 0.31, 0.62 and 0.94 µM) was “did not inhibit”. The “inhibition of IL-1β-stimulated nitrite secretion” value ([4]; DMEM medium alone, IL-1β 20 h) was “did not significantly inhibit”.
